Data published in ChEMBL document CHEMBL1150060, “Potent inhibitors of histamine release, two novel triterpenoids from the Okinawan marine sponge Penares incrustans” (J Nat Prod, 1992).

Columns and labels:
Mast cell = test: Inhibition of anti-IgE-induced histamine release in rat peritoneal mast cells; format: functional, cell-based
[1] = Cytotoxicity against rat peritoneal mast cells assessed as cell viability by trypan blue exclusion assay; format: cell-based; details: read-out: Activity

SMILES	Activity (Mast cell)	IC50 (Mast cell)	viability [1]
CC(C)=CCC[C@@H](C)[C@H]1CC[C@@]2(C(=O)O)C3=C(CC[C@]12C)[C@@]1(C)CCC(=O)C(C)(C)[C@@H]1CC3 [PENASTERONE]	Dose-dependent effect	1.5 µM	97%
CC(=O)O[C@H]1CC[C@]2(C)C3=C(CC[C@H]2C1(C)C)[C@]1(C(=O)O)CC[C@H]([C@H](C)CCC=C(C)C)[C@@]1(C)CC3 [ACETYLPENASTEROL]	Dose-dependent effect	10 µM	97%
